{"source": "patent US20130115522A1", "about": "“Manufacture of LiPO2F2” (SOLVAY SA, priority 2010, published 2013)", "test": "Solubility of LiPO2F2 (and by-product salts) in organic solvents", "assay_type": "physicochemical", "excerpt": "If it is desired to isolate LiPO2F2 and Li2PO3F from any LiF, polar aprotic solvents can be applied. For example, dialkyl carbonates are suitable for this purpose. Other solvents are acetone, isopropanol, tetrahydrofurane, ethyl acetate, acetonitrile, and diethyl carbonate. If it is desired to isolate selectively LiPO2F2, propylene carbonate was identified as very suitable solvent because LiPO2F2 is soluble therein, and Li2PO3F and also LiF are not. Other very suitable solvents are diethyl carbonate, a mixture of dimethyl carbonate and propylene carbonate, acetonitrile, dimethoxyethane and acetone. The solubility of LiPO2F2 in these solvents at ambient temperature is compiled in the following table 1.\nUnder inert gas (nitrogen), pure LiPO2F2 was dissolved in propylene carbonate at about 20° C. such that a solution is obtained comprising about 2.75% by weight of LiPO2F2.\nUnder inert gas (nitrogen), pure LiPO2F2 was dissolved in the respective solvent or solvent mixture at about 20° C. such that a solution containing the amounts of dissolved LiPO2F2 given in the following table 3 were achieved. The data for solution No. 1 was taken from example 4, the data for solutions No. 2 to 6 of table 3 correspond to those of table 1.", "data": [{"smiles": "[F-].[Li+]", "note": "[LiF]", "values": [{"measurement": "Solubility in acetone (in words)", "setting": "acetone", "result": "very low solubility"}, {"measurement": "Solubility in dimethoxyethane (in words)", "setting": "dimethoxyethane", "result": "at most in neglectable amounts"}, {"measurement": "Solubility in dimethyl carbonate, propylene carbonate and mixtures thereof (in words)", "setting": "dimethyl carbonate, propylene carbonate and mixtures thereof", "result": "at most in neglectable amounts"}, {"measurement": "Solubility in propylene carbonate (in words)", "setting": "propylene carbonate", "result": "are not"}]}]}
